Data taken from patent EP4707277A1, “NOVEL HETEROCYCLIC AMINE DERIVATIVES AND PHARMACEUTICAL COMPOSITION COMPRISING SAME” (Daewoong Pharmaceutical Co., Ltd., priority 2023, dated 2024).
Read-outs that look alike come from different tables or passages of the source.

Key:
ITK = molecular target: T1, ITK (Homo sapiens, UniProt Q08881); assay: Inhibitory activity against ITK, ADP-Glo Kinase system (Promega); type: biochemical
T1 construct: purchased Signalchem I13-11G-10
T1 sequence (Q08881 1-620): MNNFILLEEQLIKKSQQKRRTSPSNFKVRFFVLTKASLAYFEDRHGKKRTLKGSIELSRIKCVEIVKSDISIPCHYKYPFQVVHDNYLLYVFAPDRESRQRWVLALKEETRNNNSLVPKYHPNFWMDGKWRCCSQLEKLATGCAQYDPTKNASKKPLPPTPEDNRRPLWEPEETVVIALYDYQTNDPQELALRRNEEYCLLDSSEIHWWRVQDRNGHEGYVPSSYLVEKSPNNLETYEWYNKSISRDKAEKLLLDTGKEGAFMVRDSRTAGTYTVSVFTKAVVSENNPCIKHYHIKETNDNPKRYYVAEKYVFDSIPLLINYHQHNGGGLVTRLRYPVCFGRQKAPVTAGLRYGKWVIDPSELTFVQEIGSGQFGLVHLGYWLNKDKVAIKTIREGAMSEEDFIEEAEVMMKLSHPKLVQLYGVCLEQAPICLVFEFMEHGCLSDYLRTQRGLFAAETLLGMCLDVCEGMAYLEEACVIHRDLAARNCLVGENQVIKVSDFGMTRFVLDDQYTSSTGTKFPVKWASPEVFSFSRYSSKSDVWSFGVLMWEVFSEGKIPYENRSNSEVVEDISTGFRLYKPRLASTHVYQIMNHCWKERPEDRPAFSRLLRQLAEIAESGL
How it was run: (§1)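 IC50 values were fitted from kinase reactions run for 1 h at 30°C with either 1 mM ATP or ATP at Km (10 µM for BTK, 25 µM for ITK). Reactions used 0.2 µg/µl poly(Glu4,Tyr1), recombinant human enzyme (BTK 10 ng, ITK 4 ng per reaction) in Tris pH 7.5 Mn/Mg buffer with 1% DMSO. ADP formed was read by ADP-Glo luminescence.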

BTK = molecular target: T2, BTK (Homo sapiens, UniProt Q06187); assay: Inhibitory activity against BTK, ADP-Glo Kinase system (Promega); type: biochemical
T2 construct: purchased Signalchem B10-10H
T2 sequence (Q06187 whole entry): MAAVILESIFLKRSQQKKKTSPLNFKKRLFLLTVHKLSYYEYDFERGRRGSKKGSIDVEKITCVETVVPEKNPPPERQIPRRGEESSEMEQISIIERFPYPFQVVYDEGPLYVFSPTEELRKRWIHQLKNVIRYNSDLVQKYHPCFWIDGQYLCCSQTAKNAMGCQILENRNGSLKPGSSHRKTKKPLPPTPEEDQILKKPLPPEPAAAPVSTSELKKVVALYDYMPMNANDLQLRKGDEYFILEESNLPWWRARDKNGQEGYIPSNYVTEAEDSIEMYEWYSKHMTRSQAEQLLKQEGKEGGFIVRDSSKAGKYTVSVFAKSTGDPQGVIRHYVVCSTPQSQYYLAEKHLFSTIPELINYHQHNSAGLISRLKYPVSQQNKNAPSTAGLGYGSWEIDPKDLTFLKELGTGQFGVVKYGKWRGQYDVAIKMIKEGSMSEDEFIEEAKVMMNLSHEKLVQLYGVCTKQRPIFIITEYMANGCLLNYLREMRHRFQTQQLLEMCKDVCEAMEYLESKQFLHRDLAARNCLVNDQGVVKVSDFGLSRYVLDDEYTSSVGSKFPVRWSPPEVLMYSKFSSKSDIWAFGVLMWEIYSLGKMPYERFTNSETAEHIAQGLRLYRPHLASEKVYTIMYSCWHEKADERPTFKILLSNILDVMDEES
How it was run: as §1

[1] = Km ATP (ITK: 25uM), read-out: ITK IC50(nM) Km ATP
[2] = Km ATP (BTK: 10 uM), read-out: BTK IC50(nM) Km ATP
[3] = 1mM ATP, read-out: ITK IC50(nM) 1mM ATP
[4] = 1mM ATP, read-out: BTK IC50(nM) 1mM ATP

Row | IC50 (ITK; [1]) | IC50 (BTK; [2]) | IC50 (ITK; [3]) | IC50 (BTK; [4]) | Structure (SMILES)
1 | ≤ 20 nM | ≤ 20 nM |  |  | C=CC(=O)N1C2C=C(c3nc(Nc4ncc(C)s4)cc4c3ccn4C(C)C)CC1CC2 (stereo not shown) [Example 29, 1-(3-(1-isopropyl-6-((5-methylthiazol-2-yl)amino)-1H-pyrrolo[3,2-c]pyridin-4-yl)-8-azabicyclo[3.2.1]oct-2-en-8-yl)prop-2-en-1-one]
2 |  |  | ≤ 20 nM | ≤ 20 nM | C=CC(=O)N1CC[C@@H]1COc1nc(Nc2ncc(C)s2)cc2c1ccn2C1CCCC1 [Example 223, (R)-1-(2-(((1-cyclopentyl-6-((5-methylthiazol-2-yl)amino)-1H-pyrrolo[3,2-c]pyridin-4-yl)oxy)methyl)azetidin-1-yl)prop-2-en-1-one]
3 | ≤ 20 nM | ≤ 20 nM |  |  | C=CC(=O)N1CC=C(c2nc(Nc3ncc(C)s3)cc3c2ccn3C)CC1 [Example 1, 1-(4-(1-methyl-6-((5-methylthiazol-2-yl)amino)-1H-pyrrolo[3,2-c]pyridin-4-yl)-3,6-dihydropyridin-1(2H)-yl)prop-2-en-1-one]
4 |  |  | ≤ 20 nM | ≤ 20 nM | C=CC(=O)N1CC[C@@H]1COc1nc(Nc2ncc(C)s2)cc2c1ccn2CC(F)(F)F [Example 208, (R)-1-(2-(((6-((5-methylthiazol-2-yl)amino)-1-(2,2,2-trifluoroethyl)-1H-pyrrolo[3,2-c]pyridin-4-yl)oxy)methyl)azetidin-1-yl)prop-2-en-1-one]
5 |  |  | > 500 nM | > 500 nM | C=CC(=O)N1CC=C(c2nc(Nc3ncc(C)s3)cc3c2ccn3CC(F)F)C(C)C1 (stereo not shown) [Example 25, 1-(4-(1-(2,2-difluoroethyl)-6-((5-methylthiazol-2-yl)amino)-1H-pyrrolo[3,2-c]pyridin-4-yl)-3-methyl-3,6-dihydropyridin-1(2H)-yl)prop-2-en-1-one]
6 |  |  | 100 to 500 nM | ≤ 20 nM | C=CC(=O)N1CC[C@H](Oc2nc(Nc3cc[nH]n3)cc3c2ccn3C(C)C)C1 [Example 192, (S)-1-(3-((6-((1H-pyrazol-3-yl)amino)-1-isopropyl-1H-pyrrolo[3,2-c]pyridin-4-yl)oxy)pyrrolidin-1-yl)prop-2-en-1-one]
7 |  |  | 20 to 100 nM | ≤ 20 nM | C=CC(=O)N1CCC[C@H](Oc2nc(Nc3ncc(C)s3)cc3c2ccn3CC2CCCC2)C1 [Example 169, (S)-1-(3-((1-(cyclopentylmethyl)-6-((5-methylthiazol-2-yl)amino)-1H-pyrrolo[3,2-c]pyridin-4-yl)oxy)piperidin-1-yl)prop-2-en-1-one]
8 |  |  | ≤ 20 nM | ≤ 20 nM | C=CC(=O)N1C[C@H](F)[C@H](Oc2nc(Nc3ncc(C)s3)cc3c2ccn3CC2CCCC2)C1 [Example 132, 1-((3R,4S)-3-((1-(cyclopentylmethyl)-6-((5-methylthiazol-2-yl)amino)-1H-pyrrolo[3,2-c]pyridin-4-yl)oxy)-4-fluoropyrrolidin-1-yl)prop-2-en-1-one]
9 |  |  | ≤ 20 nM | ≤ 20 nM | C=CC(=O)N1C2C=C(c3nc(Nc4ncc(C)s4)cc4c3ccn4C3CCCC3)CC1CC2 (stereo not shown) [Example 33, 1-(3-(1-cyclopentyl-6-((5-methylthiazol-2-yl)amino)-1H-pyrrolo[3,2-c]pyridin-4-yl)-8-azabicyclo[3.2.1]oct-2-en-8-yl)prop-2-en-1-one]
10 |  |  | ≤ 20 nM | ≤ 20 nM | C=CC(=O)N1CC(C)(Oc2nc(Nc3ncc(C)s3)cc3c2ccn3CC2CC2)C1 [Example 167, 1-(3-((1-(cyclopropylmethyl)-6-((5-methylthiazol-2-yl)amino)-1H-pyrrolo[3,2-c]pyridin-4-yl)oxy)-3-methylazetidin-1-yl)prop-2-en-1-one]
11 |  |  | ≤ 20 nM | ≤ 20 nM | C=CC(=O)N1C[C@@H](F)[C@H](Oc2nc(Nc3ncc(C)s3)cc3c2ccn3CC2CCCC2)C1 [Example 170, 1-((3R,4R)-3-((1-(cyclopentylmethyl)-6-((5-methylthiazol-2-yl)amino)-1H-pyrrolo[3,2-c]pyridin-4-yl)oxy)-4-fluoropyrrolidin-1-yl)prop-2-en-1-one]
